The source of these data is patent publication US20110151033A1, “ORTHOSIPHON STAMINEUS EXTRACTS FOR USE AS A COGNITION ENHANCER” (BIOTROPICS MALAYSIA BHD, priority 2009, published 2011).

The subject of the first assay is mature adult rat. Briefly: Social Recognition Test (SRT), in vivo. Particulars: 3 mg/kg, same administration regime. The method, then:
The method, which detects memory enhancing activity, follows that described by Lemaire et al. (Psychopharmacology, 115, 435-440, 1994). An unfamiliar juvenile rat was introduced into the individual home cage of a mature adult rat for 5 minutes. Following this first contact (C1), the juvenile was returned to its isolation cage, until a second contact of 5 minutes with the same mature adult rat (C2), 120 minutes later was allowed.
The time the adult rat spended investigating (sniffing, grooming, licking, closely following) the juvenile at each contact was recorded. A recognition index (=C2/C1) was calculated. Under such conditions, a mature adult rat fails to recognize the juvenile as familiar, as indicated by an absence of reduction in the duration of social investigatory behaviour at C2.
12 rats were studied per group (in total 3 groups, vehicle, test compound, positive control). The test was performed blind. The test compound (e.g. the extract according example 3) was evaluated at a dose of 1 g/kg administered p.o. immediately after Cl (i.e. 120 minutes before C2), and compared with a vehicle control group. The test substance was dispersed in 4% Cremophor El, (polyoxyethylated castor oil, BASF, Ludwigshafen, Germany) in physiological saline which served as the vehicle. […] Data were analyzed by comparing treated groups with appropriate control using unpaired Student's t tests. […]
Turning to `COc1cc2c(cc1OC)C(=O)C(CC1CCN(Cc3ccccc3)CC1)C2` (stereo not drawn) [Donepezil], the “effect of the positive control (presumably on the Recognition Index)” value is −28%.

In the next assay the target is T1, ADORA2A (Homo sapiens, UniProt P29274).
T1 construct: host or cells: HEK-293
T1 sequence (P29274 whole entry): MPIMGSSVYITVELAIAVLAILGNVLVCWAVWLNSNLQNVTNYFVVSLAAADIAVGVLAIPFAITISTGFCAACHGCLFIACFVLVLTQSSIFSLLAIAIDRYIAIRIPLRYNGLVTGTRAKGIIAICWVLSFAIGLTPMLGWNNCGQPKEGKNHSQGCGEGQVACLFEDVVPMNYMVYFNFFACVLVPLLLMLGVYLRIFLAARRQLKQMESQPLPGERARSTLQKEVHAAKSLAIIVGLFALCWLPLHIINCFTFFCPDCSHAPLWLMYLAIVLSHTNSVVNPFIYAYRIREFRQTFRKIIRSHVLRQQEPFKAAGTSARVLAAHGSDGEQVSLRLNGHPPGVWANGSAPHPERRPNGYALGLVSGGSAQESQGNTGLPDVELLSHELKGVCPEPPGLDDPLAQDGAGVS
Briefly: ADORA2A in vitro receptor assay, [3H]CGS-21680 radioligand binding. Particulars: human recombinant HEK-293 cells, 0.05 μM [3H] CGS-21680. Here is the method:
The methods employed in this study have been adapted from the scientific literature (Varani K, Gessi S, Dalpiaz A, Borea P A (1996) Br. J. Pharmacol. 117, 1693 Pharmacological and biochemical characterization of purified A2A adenosine receptors in human platelet membranes by [3H]CGS-21680 binding) to maximize reliability and reproducibility. Reference standards are run as an integral part of each assay to ensure the validity of the results obtained. Assays are performed under conditions described below. (assay number 200610, Ricerca Biosciences, LLC, Taipei, Taiwan). • Source: Human recombinant HEK-293 cells • Ligand: 0.05 μM [3H]
Regarding `C=C[C@@]1(C)C[C@@H](OC(=O)c2ccccc2)[C@H]2[C@](O)(C1=O)[C@H](OC(C)=O)C[C@H]1C(C)(C)[C@H](O)[C@H](OC(C)=O)[C@H](OC(=O)c3ccccc3)[C@@]12C` [[4], Orthosiphol A], the inhibition – broadly, the drop in the measured response relative to a control, in per cent – at 10 µM was found to be 42%.
The same measure, in the same setting: the figure for `C=C[C@@]1(C)C[C@@H](OC(=O)c2ccccc2)[C@@H]2[C@@]3(C)C=C(OC(C)=O)C(=O)C(C)(C)[C@@H]3C[C@@H](OC(C)=O)[C@@]2(O)C1=O` [[5], Orthosiphol D] is 52%; for `C=C[C@@]1(C)CC(=O)[C@H]2[C@](O)(C1=O)[C@H](OC(C)=O)C[C@H]1C(C)(C)[C@H](OC(=O)c3ccccc3)[C@H](OC(C)=O)[C@H](OC(=O)c3ccccc3)[C@@]12C` [[6], Orthosiphonone A] it is 42%; for `C=CC1C(OC(=O)c2ccccc2)C2C(O)(C(=O)C1(C)O)C(OC(C)=O)CC1C(C)(C)C(O)C(OC(C)=O)C(OC(=O)c3ccccc3)C12C` (stereo not drawn) [[7], Neoorthosiphol A] it is 64%.
Same read-out and setting: the figure for `C=CC1C(OC(=O)c2ccccc2)C2C(O)(C(=O)C1(C)O)C(OC(C)=O)CC1C(C)(C)C(OC(C)=O)C(OC(C)=O)C(OC(=O)c3ccccc3)C12C` (stereo not drawn) [[8], Staminol A] is 42%.
